Values of other authors in patent US10016482B2, “Insulin independence among patients with diabetes utilizing an optimized hamster REG3 gamma peptide” (priority 2014, dated 2018).
Like-named read-outs stand apart in the source and are kept apart here. No end group written: not given here.

Experiments:
[1] = system: patients with type 1 diabetes; conditions: for study subjects / patients dropping out of the clinical trials due to local side-effects: man, local injection site reactions (pain, bruising, infection, skin site reactions)
[2] = system: human extra-islet pancreatic exocrine tissue; conditions: in vitro; exocrine ductal tissue separated from endocrine beta cells
[3] = system: new small islets developing from non-endocrine tissue

In the case of “IGLHDPSHGTLPNGS [hamster Reg3 gamma peptide, native 15 amino acid hamster Reg3 gamma peptide]”, the “increase in endogenous insulin production” value ([1]; by day 54, type 1 patients with no baseline c-peptide) is listed as 27%, the “study subjects / patients dropping out of the clinical trials due to local side-effects” value (shortened to “study subjects / patients dropping out”) ([1]; listed as 15-amino acid hamster Reg3 gamma peptide) is listed as “⅓” and the “study subjects / patients dropping out” value ([1]; listed as 15 amino acid hamster Reg3gamma peptide) is listed as “more than ⅓”. For the same sequence, the “study subjects / patients dropping out” value ([1]; listed as hamster Reg3 gamma 15 amino acid peptide) was “⅓”, the “rise in stimulated c-peptide” value ([1]; type 1 patients with no detectable c-peptide at baseline) was 27% and the insulin requirements ([1]; type 1 patients, within 54 days of usage) was “significant reduction”. For the same sequence, the “transformation of exocrine ductal tissue” value [2] was “transform into new beta cells”, the “levels of new islet markers (NGN3, NKX6.1, SOX9, INS)” value ([3]; five days after treatment) was “increased levels” and the “increase in the volume of new small islets” value ([3]; islets developing from non-endocrine tissue) was 2 fold.
